Assay results from publication PMC11741003 (ACS Chemical Neuroscience, 2024).
Residues, ends and D or L forms follow the SMILES beside them.

Assays:
[1] = system: rat brain microvascular endothelial cells (RBMECs); assay: Transendothelial electrical resistance (TEER) in the BBB in vitro model; assay type: cell-based; settings: RBMEC monolayers
[2] = BBB in vitro model: primary culture of rat brain microvascular endothelial cells (RBMECs) on inserts, astrocyte-conditioned medium in the basal compartment; settings: Wistar rat, up to 25 h
[3] = system: rat brain microvascular endothelial cells (RBMECs)
Aβ(1–40) = molecular target: T1, Aβ(1–40) (Homo sapiens, UniProt P05067); settings: cited from earlier work
T1 construct: impact the mechanism of Cu^2+-induced aggregation of Aβ(1–40)
T1 sequence (P05067 672-711 limits assumed): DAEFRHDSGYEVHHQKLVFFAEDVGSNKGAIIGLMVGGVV
Source text: Scheme 1 TP Holds Therapeutic Potential against AD TP is a tetrapeptide with the sequence MDDWAib. The MD sequence binds Cu^2+ with high affinity (A). […] These findings support a therapeu ...

PrP(106–115) = PrP(106–115) (Homo sapiens, UniProt P04156); settings: pH 7.4
Aβ(1–16) = settings: 1 equiv of TP; EPR; cited from earlier work
Source text: Although Aβ(1–X) species are the most studied, N-truncated Aβ peptides, such as Aβ(4–X) species (Figure 4A), are highly abundant Aβ isoforms detected in both healthy and AD brains.[58]−[60] Although both peptides bind Cu^2+, their coordination properties and reactivities are completely different.

[4] = system: rat brain microvascular endothelial cells (RBMECs); assay: Peptide recovery (HPLC) from apical and basal compartments of the BBB in vitro model; settings: peptide alone, apical administration; quantified after 8 and 25 h; HPLC-UV
PrP(92–99) = PrP(92–99) (Homo sapiens, UniProt P04156); settings: pH 7.4

CC(C)C[C@H](NC(=O)[C@@H](N)CCCCN)C(=O)N[C@@H](Cc1ccc(O)cc1)C(=O)O [P10] (H-Lys-Leu-Tyr-OH)
Decrease of TEER with respect to control monolayers ([1]; P10 alone, CellZscope continuous measurement): approximately 30% | Decrease of TEER with respect to control monolayers ([1]; P10 together with TP): approximately 30%

NH2-MDDWAib-Am
cleaved bond [2]: Met1-Asp2, major, 3.5 h

NH2-MDDWAib-Am [TP]
Main degradation product in the BBB model [3]: DDWAib | TP degradation in the BBB model [3]: rapidly degraded | TP passage across the BBB model [3]: cannot cross the BBB without P10 | Effect on Cu2+-induced aggregation of Aβ(1–40) (Aβ(1–40)): impacts the Cu^2+-induced aggregation of Aβ(1–40) | Fraction of Cu2+-PrP(106–115) complex in EPR deconvolution (PrP(106–115); 1 equiv of TP): 30% | Fraction of Cu2+-TP complex in EPR deconvolution (PrP(106–115); 1 equiv of TP): 50% | Fraction of ternary TP-Cu2+-PrP(106–115) complex in EPR deconvolution (PrP(106–115); 1 equiv of TP): 20% | Fraction of Cu2+-TP in EPR simulation (PrP(106–115); 2 equiv of TP): 40% | Fraction of ternary TP-Cu2+-PrP(106–115) complex in EPR simulation (PrP(106–115); 2 equiv of TP): 60% | Removal of Cu2+ from Cu2+-Aβ(1–16) (Aβ(1–16)): removes the metal ion | Effect on TEER ([1]; TP alone): no effect | Detection in apical and basal compartments [4]: detected in the apical but not in the basal compartment | Fraction of Cu2+-PrP(92–99) complex in EPR deconvolution (PrP(92–99); 1 equiv of TP): 40% | Fraction of Cu2+-TP complex in EPR deconvolution (PrP(92–99); 1 equiv of TP): 30% | Fraction of ternary TP-Cu2+-PrP(92–99) complex in EPR deconvolution (PrP(92–99); 1 equiv of TP): 30% | Fraction of Cu2+-TP in EPR simulation (PrP(92–99); 2 equiv of TP): 20% | Fraction of ternary TP-Cu2+-PrP(92–99) complex in EPR simulation (PrP(92–99); 2 equiv of TP): 80%
